{"source": "patent US8486464B2", "about": "“Herbal composition for angina pectoris, method to prepare same and uses thereof” (Tasly Pharmaceutical Group Co. Ltd., priority 2000, dated 2013)", "key": {"[1]": {"details": "cited from earlier work"}, "[2]": {"details": "cited from earlier work", "remark": "listed apart in the source"}, "[3]": {"test_system": "chronic pulmonary heart disease", "test": "Chronic pulmonary heart disease, DSP vs persantin: efficacy", "assay_type": "in vivo, human", "details": "1 month", "text": "(§1) 90 cases of chronic pulmonary heart disease were selected based on the diagnosis standard set up during the National Pulmonary Heart Disease Congress in 1977. The patients were divided randomly into an Observation group and a Control group. The 60 cases in the Observation group took DSP, while the 30 cases in the Control group took persantin. Based on the objectives of: reduced inflammation, coughing cessation, dissolving of sputum, cardial and diuretic action, and cardiac function improvement, the Observation group was given 10 grains of DSP, 3 times a day. The Control group was given 50 mg of Poon Seng Ding each time, 3 times a day. Treatment lasted 1 month.\n(1) Obvious Efficacy. The symptoms such as coughing, asthma, pulmonary rales, syanosis were relieved or disappeared. The ascites and lower limbs sdema were disappeared as well. Heartbeat was under 100 times/min and cardiac function was improved above grade I-II. The urine volume per day increased by 600 ml and above, while the body weight decreased by 4%. The end-brush circulations were improved.\n(3) Inefficacy. Above all markers were not improved."}, "[4]": {"test_system": "hemorheology", "test": "Chronic pulmonary heart disease: hemorheologic markers", "assay_type": "in vivo, human", "text": "as §1"}, "[5]": {"test_system": "hemicrania", "test": "Hemicrania, DSP vs Flunarizine", "assay_type": "in vivo, human", "details": "8 weeks", "procedure": "(2) Effects on hemicrania 58 patients with hemicrania were selected from clinics. They all qualify under International Headache Standards classifications. 10 tablets of DSP (25 mg/tablet) were given to the Treatment group, 3 times/day. 5 mg of Flunarizine was given to the control group, once a day, orally. The medication lasted 8 weeks. Treatment results and side effects were recorded every 2 weeks. No other pain-killing medications were taken within the 6 months.\nTreatment standards. Controlled: Headaches disappeared with medication, and there was no reoccurrence after treatment ended; Obvious efficacy: The seriousness of headaches is reduced, duration is shortened, and onset frequency is reduced to 75% or more; Efficacy: The level of headache is reduced, and onset frequency is reduced 50%˜70%; Failure: No improvement in headaches."}, "[6]": {"test_system": "polychromatic RBCs", "test": "Micronucleus rates in mice", "assay_type": "in vivo", "details": "80 mg/kg; 24 hrs"}, "[7]": {"test_system": "thrombosis, platelet aggregation, coagulation", "details": "single injection of 20 mg/kg; cited from earlier work"}}, "note": "Where two headings read alike, the source gives them in different places.", "data": [{"molecule": "Cc1nc(C)c(C)nc1C.O=P(O)(O)O", "note": "[TMP, tetramethylpyrazine phosphate]", "values": [{"measurement": "Cmax", "setting": "[1]; TMP 5 mg/kg ig with previous borneol 5 mg/kg", "value": 931, "unit": "ng/mL"}, {"measurement": "Cmax", "setting": "[1]; TMP 5 mg/kg ig without borneol", "value": 562, "unit": "ng/mL"}]}, {"molecule": "3H-Borneol [Example 3H-Borneol]", "values": [{"measurement": "diminishing half-lifetime", "setting": "[2]; oral administration", "value": 5.3, "unit": "h"}, {"measurement": "half-life time", "setting": "[2]; single intraveneous injection", "value": 2.8, "unit": "min"}]}, {"molecule": "OCCN(CCO)c1nc(N2CCCCC2)c2nc(N(CCO)CCO)nc(N3CCCCC3)c2n1", "note": "[persantin]", "values": [{"measurement": "Efficacy, number of cases", "setting": "[3]", "value": 9}, {"measurement": "Efficacy, rate", "setting": "[3]", "value": 0.3}, {"measurement": "Obvious efficacy, number of cases", "setting": "[3]", "value": 14}, {"measurement": "Obvious efficacy, rate", "setting": "[3]", "value": 0.47}, {"measurement": "Total efficacy rate", "setting": "[3]", "value": 0.76}, {"measurement": "Total efficacy, number of cases", "setting": "[3]", "value": 23}, {"measurement": "inefficacy, number of cases", "setting": "[3]", "value": 7}, {"measurement": "inefficacy, rate", "setting": "[3]", "value": 0.23}, {"measurement": "Total efficacy rate", "setting": "[3]; 60 DSP, 30 persantin", "value": 76, "unit": "%"}, {"measurement": "Aggregation rate of platelet", "setting": "[4]; After treatment, 1 month", "value": "32.28 ± 20.30", "unit": "%"}, {"measurement": "Blood viscosity", "setting": "[4]; After treatment, 1 month", "value": "3.66 ± 0.58"}, {"measurement": "Fibrinogen", "setting": "[4]; After treatment, 1 month", "value": "3.60 ± 0.23", "unit": "g/L"}, {"measurement": "Hematocrit", "setting": "[4]; After treatment, 1 month", "value": "0.37 ± 0.05", "unit": "VOL/%"}, {"measurement": "Aggregation rate of platelet", "setting": "[4]; before treatment", "value": "4.16 ± 2.32", "unit": "%"}, {"measurement": "Blood viscosity", "setting": "[4]; before treatment", "value": "4.35 ± 0.81"}, {"measurement": "Fibrinogen", "setting": "[4]; before treatment", "value": "4.22 ± 0.34", "unit": "g/L"}, {"measurement": "Hematocrit", "setting": "[4]; before treatment", "value": "0.48 ± 0.05", "unit": "VOL/%"}]}, {"molecule": "Fc1ccc(C(c2ccc(F)cc2)N2CCN(C/C=C/c3ccccc3)CC2)cc1", "note": "[Flunarizine]", "values": [{"measurement": "Controlled, number of cases", "setting": "[5]", "value": 5}, {"measurement": "Efficacy, number of cases", "setting": "[5]", "value": 7}, {"measurement": "Failure, number of cases", "setting": "[5]", "value": 9}, {"measurement": "Obvious efficacy, number of cases", "setting": "[5]", "value": 7}, {"measurement": "total efficacy", "setting": "[5]", "value": 67.86, "unit": "%"}]}, {"molecule": "O=P1(N(CCCl)CCCl)NCCCO1", "note": "(stereo not drawn) [CP]", "values": [{"measurement": "Micro-rates (%)", "setting": "[6]", "value": "23.0 ± 4.0", "unit": "%"}, {"measurement": "Micronucleus Cells", "setting": "[6]", "value": 138}]}, {"molecule": "O=C(O)[C@H](O)Cc1ccc(O)c(O)c1", "note": "[Danshensu, D(+)-3,4-dihydroxyphenyl lactic acid]", "values": [{"measurement": "duration of effect", "setting": "[7]", "value": 1, "unit": "h"}, {"measurement": "time of peak effect", "setting": "[7]", "value": 30, "unit": "min"}]}]}
